Drawing on patent publication US4808620A, “Pyrazolopyridine compounds, their preparation and use as platelet aggregation inhibitors” (Yoshitomi Pharmaceutical Industries, Ltd., priority 1986, dated 1989), this text covers IC50, ED50 and minimal effective dose for five molecules.

As a reminder, the IC50 is the concentration that gives 50% inhibition. Usually ED50 stands for the dose that gives a 50% effect, or the effect in half of the subjects.

SMILES strings stand for the structures. ≈ marks a conversion by molar mass, not a printed value.

Assay [1] concerns Platelet Aggregation induced by Arachidonic Acid. In words: Effect on the Platelet Aggregation induced by Arachidonic Acid. Format: cell-based, Male Hartley guinea pigs. Conditions: Cavia porcellus, guinea pig PRP, 37° C., arachidonic acid 5×10^-4 M, maximum aggregation value, read-out: IC50, Pharmacological Experiment (4), platelet aggregation. The procedure:
Effect on the Platelet Aggregation induced by Arachidonic Acid
Male Hartley guinea pigs weighing 400-500 g were subjected to the abdominal operation under etherization. The citrated blood (9 volumes of blood and one volume of 3.8% sodium citrate solution) was collected from the abdominal aorta. Immediately, the blood was centrifuged at 150×g for 3 minutes to obtained platelet-rich plasma (PRP) as a supernatant. The remaining blood was centrifuged at 1400×g for 10 minutes to obtain platelet-poor plasma (PPP) as a supernatant. The number of platelet in PRP was adjusted to 4-6×10^5 platelets/mm^3 by adding PPP thereto The platelet aggregation was measured by using a platelet aggregometer according to the method of Born et al described in J. Physiol., vol. 168, p. 178 (1963). Test compound solution was added to PRP under stirring at 1500 rpm at 37° C., and two minutes later arachidonic acid (final concentration: 5×10^-4 M) is added thereto. The change of transmittance was recorded consecutively. The transmittance was adjusted to 0 and 100% with PRP and PPP, respectively. The inhibitory rate was calculated against the control group by using the maximum aggregation value as an index, and 50% inhibitory concentration(IC50, μg/ml) was determined by the linear regression method.

In assay [2] the test system is Acute Inflammation (carrageenin). The assay is described as follows: Effect on Acute Inflammation (carrageenin hind paw, method of Winter et al). Conditions: Rattus norvegicus, po; rats, p.o., 1 h before 1% carrageenin, foot volume 3 h later; read-out: ED50, Pharmacological Experiment (2), acute inflammation. It is filed as in vivo, Male Donryu rats. The procedure: Effect on Acute Inflammation
The experiment was performed according to the method of Winter et al described in Proc. Soc. Exp. Biol. Med., vol. 111, p. 544 (1962). Male Donryu rats weighing about 140 g which was fastened for 18 hours were used in groups of five animals. Test compound solution was orally administered and one hour later, 0.05 ml of saline solution containing 1% carrageenin was injected into the right hind paw. Three hours later, the foot volume was measured by the water displacement method. The rate of increase against the foot volume before the injection of carrageenin was calculated, and the inhibitory rate was determined as compared with the control group. The 50% effective dose (ED50, mg/kg) was determined by the linear regression method.
On the technique in general: In the carrageenan paw model, swelling and tenderness develop within hours.

Assay [3] deals with Chronic Inflammation (adjuvant arthritis). In words: Effect on Chronic Inflammation (adjuvant arthritis, method of Newbould). It is filed as in vivo, male Lewis rats. Conditions: Rattus norvegicus, po; adjuvant arthritis rats, p.o. once a day from 15th to 24th day, decrease of foot volume vs 15th day; read-out: MED, Pharmacological Experiment (3), chronic inflammation. As for the experimental part:
Effect on Chronic Inflammation The experiment was performed by employing 10-week old male Lewis rats according to the method of Newbould described in Brit. J. Pharmacol., vol. 21, p. 127 (1963). Dead tubercle bacilli ([…] H5 type) suspended in liquid paraffin (0.5 mg/0.1 ml) was inoculated as adjuvant into the skin at the base of tail. Animals with arthritis were chosen on the 15th day and divided into groups of seven. Test compound solution (5 ml/kg) was orally administered once a day from 15th day of 24th day consecutively. The rate of change of the foot volume on the 24th day against the foot volume on the 15th day was calculated, and the inhibitory rate was determined as compared with the control group. The minimun effective dose (MED, mg/kg) was obtained based on the dose indicating the decrease of foot volume than the foot volume on the 15th day.

Assay [4] deals with stretch symptom induced by phenylquinone. In words: Analgesic Activity (phenylquinone-induced stretch symptom, method of Hendershot et al). The settings on record: Mus musculus, po; mice, p.o., 1 h before 0.02% phenylquinone i.p., stretch frequency for 20 min; read-out: ED50, Pharmacological Experiment (1), analgesic activity. It is filed as in vivo, Male ddY mice. The procedure:
The experiment was performed according to the method of Hendershot et al described in J. Pharmacol. Exp. Ther., vol. 125, P. 237 (1959). Male ddY mice weighing 18-25 g were used in groups of 6-18. One hour after the oral administration of test compound solution (10 ml/kg), 10 ml/kg of 0.02% aqueous phenylquinone solution was intraperitoneally administered to the animal. The frequency of stretch symptom thus induced measured for 20 minutes. The inhibitory rate was determined in comparison with the control group and the 50% effective dose (ED50, mg/kg) was caluculated according to the linear regression method.

As to `CC(=O)OCCn1nc(-c2cc(C(C)(C)C)c(O)c(C(C)(C)C)c2)c2cccnc21` [Compound E, 1-(acetoxyethyl)-3-(3,5-di-tertiarybutyl-4-hydroxyphenyl)-1H-pyrazolo[3,4-b]pyridine], the IC50 in assay [1] worked out at 0.9 µg/mL (≈ 2.2 µM). In addition, the median effective dose (ED50) was determined as 14 mg/kg in assay [2] and 0.35 mg/kg in assay [4]. For the same molecule, in assay [3], the minimal effective dose was 0.3 mg/kg.
Take `CCC(=O)OCCn1nc(-c2cc(C(C)(C)C)c(O)c(C(C)(C)C)c2)c2cccnc21` [Compound C, 3-(3,5-di-tertiarybutyl-4-hydroxyphenyl)-1-(2"propionyloxyethyl)-1H-pyrazolo [3,4-]pyridine]: the IC50 in assay [1] came out at 0.95 µg/mL (≈ 2.24 µM). Besides, the figures for the median effective dose (ED50) in assay [2] and in assay [4] were 8 mg/kg and 1.1 mg/kg, respectively. Also, the minimal effective dose in assay [3] is 0.3 mg/kg.
For the molecule `Cn1nc(-c2cc(C(C)(C)C)c(O)c(C(C)(C)C)c2)c2cccnc21` [Compound A, 3-(3,5-di-tertiarybutyl-4-hydroxyphenyl)-1-methyl-1H-pyrazolo[3,4-b]pyridine], in assay [1], the 50% inhibitory concentration (IC50) was found to be 1.05 µg/mL (≈ 3.11 µM). The ED50 in assay [2] came to 70 mg/kg; in assay [4], 9.5 mg/kg. Further, in assay [3], the minimal effective dose amounted to 0.3 mg/kg.
For `CCOC(=O)CCn1nc(-c2cc(C(C)(C)C)c(O)c(C(C)(C)C)c2)c2cccnc21` [Compound D, 3-(3,5-di-tertiarybutyl-4-hydroxyphenyl)-1-(2-ethoxycarbonylethyl)-1H-pyrazolo [3,4-b]pyridine], the concentration for half-maximal inhibition (IC50) in assay [1] is 0.12 µg/mL (≈ 0.283 µM). Besides, the ED50 in assay [2] amounted to 8.3 mg/kg; in assay [4] it was 0.56 mg/kg. Besides, in assay [3], the minimal effective dose was 1 mg/kg.
For `CC(C)(C)c1cc(-c2nn(CCO)c3ncccc23)cc(C(C)(C)C)c1O` [Compound B, 3-(3,5-di-tertiarybutyl-4-hydroxyphenyl)-1-(2-hydroxyethyl)-1H-pyrazolo [3,4-b]pyridine], in assay [1], the IC50 stood at 0.09 µg/mL (≈ 0.245 µM). Further, the ED50 worked out at 44 mg/kg in assay [2] and 19 mg/kg in assay [4]. Besides, the minimal effective dose in assay [3] is 3 mg/kg.
